Experimental data published in US20260217768A1, “NANOPARTICLE-NHE3 PEPTIDE TO TREAT DIARRHEA” (The Johns Hopkins University, priority 2023, published 2026).

Tests used:
NHE3 [1] = assay: Effect of N-terminal truncations of N3SP-1 on NHE3 activity in human enteroids (BCECF-fluorometry); assay type: cell-based; settings: human duodenal enteroids, Hill equation
Experimental: (§1) NHE3 activity in PS120, Caco-2/BBe cells and human jejunal enteroids was determined fluorometrically (Photon Technologies Incorporated) using the intracellular pH sensitive dye BCECF, as reported (Levine et al., 1993; Sarker et al., 2008; Foulke-Abel et al., 2020). PS120/HA3-NHE3 cells were seeded on glass cover slips and studied at 70-80% confluency. Caco-2/BBe/HA3-NHE3 cells were grown to confluency on Transwell inserts (polyester, 0.4-μm pore size) and studied approximately 14-16 days pod. Human duodenal enteroid monolayers on Transwell inserts were differentiated for 5 days in the absence of Wnt3a, R-spondin, and noggin as described (Noel et al., 2017; Staab et al., 2020).
(§2) Rates of Na^+/H^+ exchange were determined as Na^+-dependent alkalinization in the presence of 50-μM HOE-694 (to inhibit all other plasma membrane NHE isoforms) in HCO3-free solutions, with internal calibration using the nigericin/K+ method, as previously described (Sarker et al., 2008; Foulke-Abel et al., 2020). Kinetic analysis was used for PS120 cell studies (expressed as Vmax) and initial rates (ΔpH/min) for Caco-2/BBe cells, mouse intestine in vitro, and human enteroids. For in vitro mouse jejunal transport studies, NHE3 activity (in the presence of 50-μM HOE-694) was measured using SNARF-4F at 37° C. in a perfusion chamber using a two-photon microscope (Olympus FV1000) and 25× objective, as described (Murtazina et al., 2011).
Concentration dependent effects on NHE3 basal activity was determined using BCECF-fluorometry. Kinetic analysis was determined of extent of stimulation of basal NHE3 activity; analysis was by use of the Hill equation.
Given the ability of N3SP-1Δ7 to prevent CTx-induced fluid secretion in vivo (FIG. 3E) and to stimulate basal NHE3 activity and prevent cAMP inhibition in human enteroids (FIG. 4C), further studies were carried out with human enteroids to determine the shortest N3SP-1-related peptide that would stimulate human NHE3. A series of N3SP-1 N-terminal truncations was synthesized and concentration-dependent stimulation of NHE3 activity determined using human jejunal enteroids.

NHE3 [2] = assay: NHE3 activity in differentiated human enteroid monolayers after nanoparticle delivery of peptide; assay type: cell-based
Experimental: as §1, §2
PBAE polymer and peptide were separately dissolved in pH 7.4 150-mM PBS and combined at a 1:1 volume ratio. Final concentrations of the components were 6-ng/μL peptide and 180-ng/μL polymer (30:1 polymer: peptide weight ratio). Polymer and peptide nanoparticles were allowed to self-assemble at room temperature for 10 minutes. For characterization, nanoparticles were diluted 1:5 in PBS. Hydrodynamic diameter and zeta potential were measured using a Malvern Zetasizer Pro (Malvern Panalytical, Malvern, UK). Stability was assessed by incubating nanoparticles at RT up to 45 minutes then measuring hydrodynamic diameter over 45 minutes. […]

adenylate cyclase-cAMP = assay: cAMP assay in human enteroid monolayers exposed to FSK; assay type: cell-based; settings: nanoparticles with 250-nM peptide, FSK (10 μM) 45 min, CP-2 vs N3SP-1Δ7
Experimental: Human jejunal enteroid monolayers on Transwell inserts (Corning Cat #: 3470) were differentiated for 5 days and then in serum-free media were exposed apically to nanoparticles containing either 250-nM CP-2 or N3SP-1Δ7. The peptide and polymer in PBS were prepared just before use, allowed to combine for 10 min before being added to the apical surface of enteroid monolayers at room temperature. Monolayers were incubated for 4 hours at 37° C., 5% CO2 incubator before the nanoparticles were removed, then monolayers were washed 3 times with cold PBS and changed to differentiation media and moved to a 37° C. incubator. Differentiation media was removed 24 hours later and washed twice with CMGF-media (Advanced DMEM/F12 with 10-mM Hepes, 10-mM GlutaMax, and 1000 Units/mL Penn/Strep). Next, 100 μL of CMGF-media containing 10-mM Theophylline, 50-μM Cilostazol and 50-μM Rolipram was added to the apical and basolateral surfaces followed by exposure to FSK (10 μM) at 37° C., 5% CO2, for 45 min before apical and basolateral media were collected and cells were lysed in 200-μL 0.1 M HCl for cAMP analysis. CAMP in apical, basolateral, and cells was determined using nonradioactive, CAMP-ELISA kits from ENZO Life Sciences (Loerrach, German), using the acetylation protocol in which the yellow-colored product is inversely proportional to the amount of CAMP present in the sample.

[3] = Nanoparticle characterization: hydrodynamic diameter, zeta potential, stability; assay type: physicochemical; settings: CR5 with peptide, 30:1 polymer:peptide weight ratio
Experimental: PBAE polymer and peptide were separately dissolved in pH 7.4 150-mM PBS and combined at a 1:1 volume ratio. Final concentrations of the components were 6-ng/μL peptide and 180-ng/μL polymer (30:1 polymer: peptide weight ratio). Polymer and peptide nanoparticles were allowed to self-assemble at room temperature for 10 minutes. For characterization, nanoparticles were diluted 1:5 in PBS. Hydrodynamic diameter and zeta potential were measured using a Malvern Zetasizer Pro (Malvern Panalytical, Malvern, UK). Stability was assessed by incubating nanoparticles at RT up to 45 minutes then measuring hydrodynamic diameter over 45 minutes. Nanoparticles were made immediately prior to each experiment.

[4] = system: differentiated human enteroid monolayers; assay: Nanoparticle-peptide uptake in human enteroid monolayers (confocal microscopy); assay type: cell-based; settings: apical addition, 2 μM, 4 h uptake, differentiated human enteroids
Experimental: […] After varying times from 15 min to 4 hours, enteroids were washed three times with PBS to remove extracellular nanoparticles and wells were replenished with fresh serum-containing media.
At varying times after nanoparticle addition up to overnight, enteroids were serum-starved for 2 hours then fixed in 4% paraformaldehyde for 30 minutes. After washing with PBS, formaldehyde was neutralized with 20-mM glycine. Enteroids were then permeabilized in 0.1% saponin, 1% BSA for 30 minutes. Fixed and permeabilized enteroids were stained for biotinylated peptide using streptavidin conjugated AlexaFluor 488 (1:100) and Hoechst stain (1:200). Enteroids were thoroughly washed with PBS and mounted onto microscope slides. Uptake was visualized using an Olympus FV3000RS confocal microscope and 40× objective (Olympus, Tokyo, Japan).

N3SP-1 lacking first seven N-terminal amino acids: RPSTVEASVSYLLRESASAVCLDMQSLEQRR [Peptide N3SP-1Δ7]
Stimulation of NHE3 Activity (NHE3 [1]; basal NHE3 activity, BCECF-fluorometry): YES (39%) | EC50 (NHE3 [1]; stimulation of basal NHE3 activity): 156 nM | NHE3 activity after FSK, % of same peptide without FSK (NHE3 [2]; nanoparticles (250 nM) 18 h, FSK exposure, n=4): 88.0% | increase of basal NHE3 activity compared to CP-2 (NHE3 [2]; nanoparticles added apically (250 nM) for 18 h, n=4, p=0.043): 36.0% | FSK-increased intracellular cAMP (adenylate cyclase-cAMP): similar | surface zeta potential (electrophoretic light scattering) [3]: 22.4±1.2 mV | nanoparticle diameter (DLS) ([3]; aqueous): 385±30 nm | uptake and location in enteroid monolayers [4]: lack of uptake
